Biological target: T1, Enoyl-acyl-carrier protein reductase (Plasmodium falciparum, UniProt Q965D5)
T1 sequence (Q965D5 whole entry): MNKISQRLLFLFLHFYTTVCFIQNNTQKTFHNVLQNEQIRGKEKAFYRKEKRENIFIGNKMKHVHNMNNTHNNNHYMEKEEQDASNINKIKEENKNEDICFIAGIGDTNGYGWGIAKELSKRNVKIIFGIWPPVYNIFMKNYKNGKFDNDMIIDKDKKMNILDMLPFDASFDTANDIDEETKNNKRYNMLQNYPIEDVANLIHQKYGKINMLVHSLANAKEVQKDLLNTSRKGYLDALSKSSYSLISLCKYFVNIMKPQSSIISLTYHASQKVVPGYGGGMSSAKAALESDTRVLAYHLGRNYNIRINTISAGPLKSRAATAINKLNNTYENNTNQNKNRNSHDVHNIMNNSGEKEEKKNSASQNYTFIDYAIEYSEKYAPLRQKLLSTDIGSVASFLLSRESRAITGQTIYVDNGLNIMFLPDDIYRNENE
Experiment: Inhibition of Plasmodium falciparum enoyl-acyl carrier protein reductase expressed in Escherichia coli BL21(DE3) by spectrophotometry

SMILES: Oc1cc(Cl)ccc1Oc1ccc(Cl)cc1Cl [TRICLOSAN]
- Ki: 50 nM

Source: ChEMBL document CHEMBL1152896, “Design and in silico screening of combinatorial library of antimalarial analogs of triclosan inhibiting Plasmodium falciparum enoyl-acyl carrier protein reductase” (Eur J Med Chem, 2009)
